Assay: method code SF-AS, from DOI: 10.1021/jm00114a020, PMID: 1920359
Settings: pH 7.4

Row | Compound | logD
1 | NS(=O)(=O)c1ccc(S(=O)(=O)CCCO)c([N+](=O)[O-])c1 | -0.05
2 | NS(=O)(=O)c1ccc(SCCO)cc1 | 0.36
3 | NS(=O)(=O)c1ccc(SCCO)s1 | 0.38
4 | NS(=O)(=O)c1ccc(SCCCCO)c(F)c1 | 1.28
5 | NS(=O)(=O)c1ccc(S(=O)(=O)CCO)s1 | -0.54
6 | CC(=O)OCCCS(=O)(=O)c1ccc(S(N)(=O)=O)s1 | 0.17
7 | NS(=O)(=O)c1ccc(SCCCO)c([N+](=O)[O-])c1 | 0.96
8 | NS(=O)(=O)c1ccc(SCCO)c(F)c1 | 0.72
9 | NS(=O)(=O)c1ccc(S(=O)(=O)CCO)c(F)c1 | -0.6
10 | NS(=O)(=O)c1ccc(S(=O)(=O)CCCO)cc1 | -0.64
11 | Nc1cc(S(N)(=O)=O)ccc1S(=O)(=O)CCCO | -0.48
12 | CC(C)(O)CCS(=O)(=O)c1ccc(S(N)(=O)=O)cc1 | -0.09
13 | CC(=O)OCCCCCc1ccc(S(N)(=O)=O)cc1 | 1.86
14 | NS(=O)(=O)c1ccc(CCCCCO)cc1 | 1.04
15 | NS(=O)(=O)c1ccc(SCCO)c([N+](=O)[O-])c1 | 0.38
16 | NS(=O)(=O)c1ccc(S(=O)(=O)CCO)cc1 | -0.85
17 | Nc1cc(S(N)(=O)=O)ccc1S(=O)(=O)CCO | -0.6
18 | COC(=O)c1cc(S(N)(=O)=O)ccc1S(=O)(=O)CCO | -0.47

Row | Compound | logD
19 | NS(=O)(=O)c1ccc(SCCCCCO)cc1 | 1.04
20 | NS(=O)(=O)c1ccc(SCCCO)c(F)c1 | 0.99
21 | CC(=O)OCCS(=O)(=O)c1ccc(S(N)(=O)=O)s1 | 0.11
22 | CC(=O)OCCCc1ccc(S(N)(=O)=O)cc1 | 0.98
23 | COCC(=O)OCCCS(=O)(=O)c1ccc(S(N)(=O)=O)s1 | -0.14
24 | COC(=O)c1cc(S(N)(=O)=O)ccc1S(=O)(=O)CCCO | -0.3
25 | NS(=O)(=O)c1ccc(CCCO)cc1 | 0.17
26 | NS(=O)(=O)c1ccc(SCCCO)s1 | 0.85
27 | NS(=O)(=O)c1ccc(S(=O)(=O)CCCCO)cc1 | -0.26
28 | NS(=O)(=O)c1ccc(SCCCCO)cc1 | 0.93
29 | NS(=O)(=O)c1ccc(S(=O)(=O)CCCCO)s1 | -0.34
30 | NS(=O)(=O)c1ccc(S(=O)(=O)CCCO)s1 | -0.36
31 | NS(=O)(=O)c1ccc(SCCCCO)s1 | 0.95
32 | NS(=O)(=O)c1ccc(S(=O)(=O)CCCO)c(F)c1 | -0.41
33 | CC(C)(O)CCSc1ccc(S(N)(=O)=O)cc1 | 1.4
34 | NS(=O)(=O)c1ccc(CCCCO)cc1 | 0.57
35 | NS(=O)(=O)c1ccc(SCCCO)cc1 | 0.8
36 | NS(=O)(=O)c1ccc(SCCCO)c(Cl)c1 | 1.59

— the SangsterLogP compilation
